# Experimental data reported in ChEMBL document CHEMBL5634119, “Design and synthesis of 4th generation EGFR inhibitors against human triple (Del19/T790M/C797S) mutation” (Eur J Med Chem, 2023).
# How the values were obtained:
# HCC827 = assay: Antiproliferative activity against human HCC827 cells harboring EGFR Del19 mutant incubated for 72 hrs by SRB assay; type: functional, cell-based; conditions: HCC827, 72 h
# [1] = Inhibition of EGFR del19/T790M/C797S triple mutant in mouse BAF3 cells assessed as reduction in cell proliferation incubated for 3 days by celltiter-glo assay; type: cell-based; conditions: BaF3, 72 h
# [2] = Inhibition of wild type EGFR in mouse BAF3 cells assessed as reduction in cell proliferation incubated for 3 days by celltiter-glo assay; type: cell-based; conditions: BaF3, 72 h
# NCI-H1975 [3] = assay: Antiproliferative activity against human NCI-H1975 cells harboring EGFR L858R/T790M mutant incubated for 72 hrs by SRB assay; type: functional, cell-based; conditions: NCI-H1975, 72 h
# PC-9 [4] = assay: Antiproliferative activity against human PC-9 cells harboring EGFR Del19/T790M/C797S mutant incubated for 72 hrs by SRB assay; type: functional, cell-based; conditions: PC-9, 72 h
# NCI-H1975 [5] = assay: Antiproliferative activity against human NCI-H1975 cells harboring EGFR L858R/T790M/C797S mutant incubated for 72 hrs by SRB assay; type: functional, cell-based; conditions: NCI-H1975, 72 h
# A-431 = assay: Antiproliferative activity against human A-431 cells harboring wild type EGFR incubated for 72 hrs by SRB assay; type: functional, cell-based; conditions: A-431, 72 h
# PC-9 [6] = assay: Potency index, ratio of Brigatinib IC50 to test compound IC50 for antiproliferative activity against human PC-9 cells harboring EGFR Del19/T790M/C797S mutant incubated for 72 hrs by SRB assay; type: functional
# NCI-H1975 [7] = assay: Potency index, ratio of Brigatinib IC50 to test compound IC50 for antiproliferative activity against human NCI-H1975 cells harboring EGFR L858R/T790M/C797S mutant incubated for 72 hrs by SRB assay; type: functional
# [8] = biological target: T1, Epidermal growth factor receptor (Homo sapiens, UniProt P00533, C797S/EX19DEL/T790M); assay: Inhibition of EGFR del19/T790M/C797S triple mutant (unknown origin) in presence of ATP by FRET assay
# [9] = biological target: Epidermal growth factor receptor (Homo sapiens, UniProt P00533, C797S/L858R/T790M); assay: Inhibition of EGFR L858R/T790M/C797S triple mutant (unknown origin) in presence of ATP by FRET assay
# [10] = biological target: T2, Epidermal growth factor receptor (Homo sapiens, UniProt P00533); assay: Inhibition of wild type EGFR (unknown origin) in presence of ATP by FRET assay
# [11] = Microsomal stability in human liver microsome assessed as parent compound remaining preincubated with compound for 60 mins and measured after 1 hr by HPLC analysis; type: ADME; conditions: liver microsomes, time 2 hrs, read-out: Stability
# [12] = Microsomal stability in mouse liver microsome assessed as parent compound remaining preincubated with compound for 60 mins and measured after 1 hr by HPLC analysis; type: ADME; conditions: liver microsomes, time 2 hrs, read-out: Stability
# [13] = Plasma protein binding in human assessed as unbound fraction measured after 6 hrs by rapid equilibrium dialysis based LC-MS/MS analysis; type: ADME, cell-free
# [14] = Plasma protein binding in mouse assessed as unbound fraction measured after 6 hrs by rapid equilibrium dialysis based LC-MS/MS analysis; type: ADME, cell-free
# [15] = Stability in human plasma assessed as parent compound remaining measured after 2 hrs by LC-MS/MS analysis; type: ADME, cell-free; conditions: read-out: Stability
# [16] = Stability in mouse plasma assessed as parent compound remaining measured after 2 hrs by LC-MS/MS analysis; type: ADME, cell-free; conditions: read-out: Stability
# [17] = biological target: T1, Epidermal growth factor receptor; assay: Inhibition of EGFR phosphorylation in human PC-9 cells harboring Del19/T790M/C797S mutant incubated for 6 hrs by Western blot analysis; type: cell-based
# [18] = Inhibition of ERK phosphorylation in human PC-9 cells harboring Del19/T790M/C797S mutant incubated for 6 hrs by Western blot analysis; type: cell-based; conditions: PC-9, 6 h
# [19] = Inhibition of AKT phosphorylation in human PC-9 cells harboring Del19/T790M/C797S mutant incubated for 6 hrs by Western blot analysis; type: cell-based; conditions: PC-9, 6 h
# [20] = biological target: T2, Epidermal growth factor receptor; assay: Inhibition of EGFR phosphorylation in human A-431 cells harboring wild type EGFR incubated for 6 hrs by Western blot analysis; type: cell-based
# [21] = Inhibition of ERK phosphorylation in human A-431 cells harboring wild type EGFR incubated for 6 hrs by Western blot analysis; type: cell-based; conditions: A-431, 6 h
# [22] = Inhibition of AKT phosphorylation in human A-431 cells harboring wild type EGFR incubated for 6 hrs by Western blot analysis; type: cell-based; conditions: A-431, 6 h
# [23] = AUC (0 to 24 hrs) in mouse at 5 mg/kg, iv measured upto 24 hrs by LC-MS/MS analysis; type: ADME, organism-based; conditions: in vivo
# [24] = AUC (0 to 24 hrs) in mouse at 75 mg/kg, po measured upto 24 hrs by LC-MS/MS analysis; type: ADME, organism-based; conditions: in vivo
# [25] = Cmax in mouse at 5 mg/kg, iv measured upto 24 hrs by LC-MS/MS analysis; type: ADME, organism-based; conditions: in vivo
# [26] = Cmax in mouse at 75 mg/kg, po measured upto 24 hrs by LC-MS/MS analysis; type: ADME, organism-based; conditions: in vivo
# [27] = Tmax in mouse at 75 mg/kg, po measured upto 24 hrs by LC-MS/MS analysis; type: ADME, organism-based; conditions: in vivo
# [28] = Half life in mouse at 5 mg/kg, iv measured upto 24 hrs by LC-MS/MS analysis; type: ADME, organism-based; conditions: in vivo
# [29] = Half life in mouse at 75 mg/kg, po measured upto 24 hrs by LC-MS/MS analysis; type: ADME, organism-based; conditions: in vivo
# [30] = Clearance in mouse at 5 mg/kg, iv measured upto 24 hrs by LC-MS/MS analysis; type: ADME, organism-based; conditions: in vivo
# [31] = Volume of distribution at steady state in mouse at 5 mg/kg, iv measured upto 24 hrs by LC-MS/MS analysis; type: ADME, organism-based; conditions: in vivo, read-out: Vdss
# [32] = Oral bioavailability in mouse at 75 mg/kg measured upto 24 hrs by LC-MS/MS analysis; type: ADME, organism-based; conditions: in vivo
# [33] = Toxicity in NOD-SCID mouse xenografted with human PC-9 cells harboring Del19/T790M/C797S triple mutant assessed as body weight loss at 50 mg/kg, sc bid administered for 14 days; type: organism-based; conditions: in vivo, 336 h, time 14 day
# [34] = Toxicity in NOD-SCID mouse xenografted with human PC-9 cells harboring Del19/T790M/C797S triple mutant assessed as clinical signs at 50 mg/kg, sc bid administered for 14 days; type: organism-based; conditions: in vivo, 336 h, time 14 day
# T1 sequence (P00533 whole entry, looked up, stated change not applied): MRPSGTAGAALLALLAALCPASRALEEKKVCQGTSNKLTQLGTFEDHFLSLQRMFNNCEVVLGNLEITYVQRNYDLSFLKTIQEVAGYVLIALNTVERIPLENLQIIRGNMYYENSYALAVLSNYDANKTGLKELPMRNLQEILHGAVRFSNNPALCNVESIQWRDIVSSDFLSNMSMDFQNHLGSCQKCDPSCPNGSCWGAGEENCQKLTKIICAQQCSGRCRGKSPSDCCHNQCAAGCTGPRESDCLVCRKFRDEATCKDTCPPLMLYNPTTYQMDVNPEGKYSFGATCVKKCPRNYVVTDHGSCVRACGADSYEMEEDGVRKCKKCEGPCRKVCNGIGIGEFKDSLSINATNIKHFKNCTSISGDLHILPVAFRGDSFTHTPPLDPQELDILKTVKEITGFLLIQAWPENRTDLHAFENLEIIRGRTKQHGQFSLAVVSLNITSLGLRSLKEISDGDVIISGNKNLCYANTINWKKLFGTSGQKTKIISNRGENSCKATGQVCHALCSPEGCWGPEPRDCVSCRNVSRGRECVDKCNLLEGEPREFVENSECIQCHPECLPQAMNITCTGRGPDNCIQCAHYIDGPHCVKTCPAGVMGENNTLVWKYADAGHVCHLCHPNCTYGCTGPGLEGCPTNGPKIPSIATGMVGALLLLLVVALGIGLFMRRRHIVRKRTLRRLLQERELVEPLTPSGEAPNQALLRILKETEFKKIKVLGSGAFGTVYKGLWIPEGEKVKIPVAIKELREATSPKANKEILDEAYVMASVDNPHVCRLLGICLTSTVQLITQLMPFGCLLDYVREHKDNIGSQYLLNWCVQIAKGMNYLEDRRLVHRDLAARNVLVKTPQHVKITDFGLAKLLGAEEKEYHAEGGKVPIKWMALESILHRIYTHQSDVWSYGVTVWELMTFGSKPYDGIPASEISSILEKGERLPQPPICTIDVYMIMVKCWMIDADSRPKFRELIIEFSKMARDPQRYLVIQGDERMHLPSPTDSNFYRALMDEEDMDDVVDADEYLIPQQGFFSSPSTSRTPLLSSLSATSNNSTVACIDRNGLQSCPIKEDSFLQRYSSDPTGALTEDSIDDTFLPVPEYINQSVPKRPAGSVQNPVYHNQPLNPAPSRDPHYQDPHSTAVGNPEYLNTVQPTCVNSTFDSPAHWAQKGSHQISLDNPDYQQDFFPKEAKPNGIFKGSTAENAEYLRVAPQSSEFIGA
# T2 sequence (P00533 whole entry): as the sequence (P00533 whole entry, looked up, stated change not applied) above
# Chain of Epidermal growth factor receptor (Homo sapiens, UniProt P00533, C797S/L858R/T790M) (P00533 25-1210 T790M/C797S/L858R limits assumed): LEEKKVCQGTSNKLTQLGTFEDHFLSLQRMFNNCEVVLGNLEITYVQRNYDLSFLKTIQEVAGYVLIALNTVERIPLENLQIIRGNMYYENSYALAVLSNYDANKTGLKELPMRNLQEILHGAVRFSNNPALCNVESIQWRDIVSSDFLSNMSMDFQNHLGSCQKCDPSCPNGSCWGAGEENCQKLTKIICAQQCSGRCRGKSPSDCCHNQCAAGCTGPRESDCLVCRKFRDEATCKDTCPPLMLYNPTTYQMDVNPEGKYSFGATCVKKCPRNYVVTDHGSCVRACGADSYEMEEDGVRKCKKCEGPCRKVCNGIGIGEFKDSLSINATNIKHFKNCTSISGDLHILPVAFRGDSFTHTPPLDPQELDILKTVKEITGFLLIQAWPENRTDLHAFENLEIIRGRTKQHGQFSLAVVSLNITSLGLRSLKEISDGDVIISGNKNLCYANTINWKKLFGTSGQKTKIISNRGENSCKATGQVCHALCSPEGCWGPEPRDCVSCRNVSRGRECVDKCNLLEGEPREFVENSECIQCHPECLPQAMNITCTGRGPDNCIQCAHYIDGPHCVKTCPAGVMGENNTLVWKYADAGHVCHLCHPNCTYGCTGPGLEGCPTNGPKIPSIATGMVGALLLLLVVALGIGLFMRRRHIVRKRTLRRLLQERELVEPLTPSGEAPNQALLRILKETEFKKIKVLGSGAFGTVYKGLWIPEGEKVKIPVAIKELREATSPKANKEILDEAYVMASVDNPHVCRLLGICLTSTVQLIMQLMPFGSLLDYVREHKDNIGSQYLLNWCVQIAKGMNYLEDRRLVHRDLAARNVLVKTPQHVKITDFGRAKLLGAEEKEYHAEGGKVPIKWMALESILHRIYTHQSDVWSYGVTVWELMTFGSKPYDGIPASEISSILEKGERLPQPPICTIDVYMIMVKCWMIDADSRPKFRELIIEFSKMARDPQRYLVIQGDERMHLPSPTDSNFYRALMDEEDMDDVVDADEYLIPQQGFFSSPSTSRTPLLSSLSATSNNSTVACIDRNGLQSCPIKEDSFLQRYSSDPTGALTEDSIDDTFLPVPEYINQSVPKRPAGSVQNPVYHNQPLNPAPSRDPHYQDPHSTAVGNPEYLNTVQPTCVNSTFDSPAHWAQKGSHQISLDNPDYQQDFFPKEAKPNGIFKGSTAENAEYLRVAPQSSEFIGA
Compound,IC50 (HCC827) [nM],IC50 [1] [nM],IC50 [2] [nM],IC50 (NCI-H1975 [3]) [nM],IC50 (PC-9 [4]) [nM],IC50 (NCI-H1975 [5]) [nM],IC50 (A-431) [nM],Ratio IC50 (PC-9 [6]),Ratio IC50 (NCI-H1975 [7]),IC50 [8] [nM],IC50 [9] [nM],IC50 [10] [nM],remaining at 1 h [11] [%],remaining at 1 h [12] [%],fraction unbound at 6 h [13],fraction unbound at 6 h [14],remaining at 2 h [15] [%],remaining at 2 h [16] [%],IC50 [17] [nM],IC50 [18] [nM],also measured
CCN1CCN(c2ccc(Nc3nc(Nc4ccccc4N(C)S(C)(=O)=O)c4cc[nH]c4n3)cc2F)CC1,121,10.1,667,178,155,202,334,5.4,5.4,9.2,12.7,> 10000,41.9,33,0.916,0.926,91.8,97.8,9.6,23,IC50 [19]: 27 nM; IC50 [20]: 1320 nM; IC50 [21]: 3940 nM; IC50 [22]: 2160 nM; AUC(0-t) at 24 h [23]: 978 ng·h/mL; AUC(0-t) at 24 h [24]: 34000 ng·h/mL; Cmax [25]: 4550 ng/mL; Cmax [26]: 6030 ng/mL; Tmax [27]: 0.5 h; half-life [28]: 0.7 h; half-life [29]: 2.3 h; clearance [30]: 85 mL/min/kg; Vd [31]: 2 L/kg; bioavailability [32]: > 100%; Activity [33]: Non-Toxic; Activity [34]: Non-Toxic
CCN1CCN(C2CCN(c3ccc(Nc4nc(Nc5ccccc5N(C)S(C)(=O)=O)c5cc[nH]c5n4)cc3F)CC2)CC1,84.2,15.5,713,98.8,151,130,484,5.4,5.4,4.2,4.7,10300,57.3,24,0.937,0.946,99.1,97.4,7.4,26,IC50 [19]: 7.1 nM; IC50 [20]: 1180 nM; IC50 [21]: 1670 nM; IC50 [22]: 1820 nM; AUC(0-t) at 24 h [23]: 1560 ng·h/mL; AUC(0-t) at 24 h [24]: 35800 ng·h/mL; Cmax [25]: 1560 ng/mL; Cmax [26]: 5480 ng/mL; Tmax [27]: 2 h; half-life [28]: 1.7 h; half-life [29]: 3.5 h; clearance [30]: 53.3 mL/min/kg; Vd [31]: 10.8 L/kg; bioavailability [32]: > 100%; Activity [33]: Non-Toxic; Activity [34]: Non-Toxic
